According to patent publication EP0036652A2, “Cephalosporin derivatives, process for their preparation, corresponding compositions, their use in the treatment of diseases and intermediates” (F. HOFFMANN-LA ROCHE & CO. Aktiengesellschaft, priority 1980, dated 1981):
Converted amounts (≈) assume the structure as drawn.

Columns and labels:
[1] = tested on: Enterobacter cloacae; assay: In vitro activity: minimum inhibitory concentration; assay type: cell-based; conditions: β-lactamase-producing strain, read-out: Mindesthemmkonzentration
Source text: (§1) Zum Nachweis der antimikrobiellen Wirksamkeit der erwähnten Produkte wurden folgende repräsentative Vertreter getestet: • Produkt A: (6R,7R)-7-/2-(2-Amino-4-thiazolyl)-2-[(Z)-methoxyimino]acetamido/-3-/[(2,5-dihydro-6- methoxy-2-methyl-5-oxo-as-triazin-3-yl)-; thio]methyl/-8-oxo-5-thia-1-azabicyclo-[4.2.0]oct-2-en-2-carbonsäure-Natriumsalz • Produkt B: (6R,7R)-7-/2-(2-Amino-4-thiazolyl)-2-[(Z)-methoxyimino]acetamido/-3-/[(3-carboxy-1-methyl-1H-1,2,4-triazol-5-yl)thio]methyl/-8-oxo-5-thia-1-azabicyclo[4.2.0]oct-2-en-2-carbonsäure-Dinatriumsalz • Produkt C: (6R,7R)-7-[2-(2-Amino-4-thiazolyl)-2-((Z)-methoxyimino)acetamido]-3-[[[2,5-dihydro-2-methyl-5-oxo-6-[(pivaloyloxy)methoxy]-as- triazin-3-yl]thio]methyl]-[…]-1-azabicyclo[4.2.0]oct-2-en-2-carbonsäure-Natrium-. salz.
(§2) Aktivität in vitro: Mindesthemmkonzentration (µg/ml)

[2] = tested on: Escherichia coli; assay: as above; assay type: cell-based; conditions: β-lactamase-producing strain, read-out: Mindesthemmkonzentration
Source text: as §1, §2

[3] = tested on: Haemophilus influenzae; assay: as above; assay type: cell-based; conditions: read-out: Mindesthemmkonzentration
Source text: as §1, §2

[4] = tested on: Neisseria gonorrhoeae; assay: as above; assay type: cell-based; conditions: read-out: Mindesthemmkonzentration
Source text: as §1, §2

[5] = tested on: Proteus mirabilis; assay: as above; assay type: cell-based; conditions: β-lactamase-producing strain, read-out: Mindesthemmkonzentration
Source text: as §1, §2

[6] = tested on: Proteus vulgaris; assay: as above; assay type: cell-based; conditions: β-lactamase-producing strain, read-out: Mindesthemmkonzentration
Source text: as §1, §2

[7] = tested on: Pseudomonas aeruginosa Stamm 1; assay: as above; assay type: cell-based; conditions: STAMM1; Pseudomonas aeruginosa Stamm 1, β-lactamase-producing strain; read-out: Mindesthemmkonzentration
Source text: as §1, §2

[8] = tested on: Pseudomonas aeruginosa Stamm 2; assay: as above; assay type: cell-based; conditions: STAMM2; Pseudomonas aeruginosa Stamm 2, β-lactamase-producing strain; read-out: Mindesthemmkonzentration
Source text: as §1, §2

[9] = tested on: Serratia marcescens; assay: as above; assay type: cell-based; conditions: β-lactamase-producing strain, read-out: Mindesthemmkonzentration
Source text: as §1, §2

[10] = tested on: Staphylococcus aureus; assay: as above; assay type: cell-based; conditions: read-out: Mindesthemmkonzentration
Source text: as §1, §2

[11] = Toxicity (LD100); assay type: in vivo
[12] = Half-life in the rat; set-up: species or system Ratte; conditions: in vivo, 20 mg/kg, after administration of 20 mg substance per kg body weight, read-out: Halbwertzeit
Source text: Verbindungen der Formel I, worin X die Gruppe (b) darstellt, sowie die entsprechenden Ester, Salze und Hydrate zeichnen sich durch eine lange Halbwertzeit aus, d.h. sie bleiben lange im Organismus und können dementsprechend effektiver ihre keimtötende Funktion ausüben. So zeigt z.B. das Dinatriumsalz von (6R,7R)-7-/-2-(2-Amino-4-thiazolyl)-2-[(Z)-me- thoxyimino]acetamido/-3-/[(3-carboxy-1-methyl-1H-1,2,4-triazol-5-yl)thio]methyl/-8-oxo-5-thia-1-azabieyclo[4.2.0]-oct-2-en-2-carbonsäure eine Halbwertzeit an der Ratte von 22 Min. nach Verabreichung von 20 mg Substanz pro kg Körpergewicht.

Row | SMILES | MIC [1] [µg/mL] | MIC [2] [µg/mL] | MIC [3] [µg/mL] | MIC [4] [µg/mL] | MIC [5] [µg/mL] | MIC [6] [µg/mL] | MIC [7] [µg/mL] | MIC [8] [µg/mL] | MIC [9] [µg/mL] | MIC [10] [µg/mL] | LD100 ([11]; i.v.) [mg/kg] | LD100 ([11]; p.o.) [mg/kg] | LD100 ([11]; s.c.) [mg/kg] | half-life [12] [min]
1 | CO/N=C(\C(=O)N[C@@H]1C(=O)N2C(C(=O)O)=C(CSc3nc(=O)c(OC)nn3C)CS[C@H]12)c1csc(N)n1 [Produkt A, (6R,7R)-7-/2-(2-Amino-4-thiazolyl)-2-[(Z)-methoxyimino]acetamido/-3-/[(2,5-dihydro-6-methoxy-2-methyl-5-oxo-as-triazin-3-yl)- ; thio]methyl/-8-oxo-5-thia-1-azabicyclo-[4.2.0]oct-2-en-2-carbonsäure-Natriumsalz] | 1.2 (≈ 2.11 µM) | 0.04 (≈ 0.0703 µM) | 0.01 (≈ 0.0176 µM) | 0.01 (≈ 0.0176 µM) | 0.04 (≈ 0.0703 µM) | 0.02 (≈ 0.0352 µM) | 40 (≈ 70.3 µM) | 80 (≈ 141 µM) | 0.16 (≈ 0.281 µM) | 2.5 (≈ 4.4 µM) | > 500 | >5000 | >4000 | –
2 | CO/N=C(\C(=O)N[C@@H]1C(=O)N2C(C(=O)O)=C(CSc3nc(=O)c(OCOC(=O)C(C)(C)C)nn3C)CS[C@H]12)c1csc(N)n1 [Produkt C, (6R,7R)-7-[2-(2-Amino-4-thiazolyl)-2-((Z)-methoxyimino)acetamido]-3-[[[2,5-dihydro-2-methyl-5-oxo-6-[(pivaloyloxy)methoxy]-as-triazin-3-yl]thio]methyl]-[…]-1-azabicyclo[4.2.0]oct-2-en-2-carbonsäure-Natrium-. salz] | 25 (≈ 37.4 µM) | 0.1 (≈ 0.15 µM) | 0.04 (≈ 0.0598 µM) | – | 0.4 (≈ 0.598 µM) | 0.2 (≈ 0.299 µM) | 50 (≈ 74.8 µM) | 50 (≈ 74.8 µM) | 3.1 (≈ 4.64 µM) | 1.6 (≈ 2.39 µM) | >500 | >5000 | >4000 | –
3 | CO/N=C(\C(=O)N[C@@H]1C(=O)N2C(C(=O)O)=C(CSc3nc(C(=O)O)nn3C)CS[C@H]12)c1csc(N)n1 [Produkt B, (6R,7R)-7-/2-(2-Amino-4-thiazolyl)-2-[(Z)-methoxyimino]acetamido/-3-/[(3-carboxy-1-methyl-1H-1,2,4-triazol-5-yl)thio]methyl/-8-oxo-5-thia-1-azabicyclo[4.2.0]oct-2-en-2-carbonsäure-Dinatriumsalz] | 10 (≈ 18 µM) | 0.08 (≈ 0.144 µM) | 0.01 (≈ 0.018 µM) | 0.0025 (≈ 0.00451 µM) | 0.01 (≈ 0.018 µM) | 0.01 (≈ 0.018 µM) | 40 (≈ 72.1 µM) | 40 (≈ 72.1 µM) | 0.16 (≈ 0.289 µM) | 10 (≈ 18 µM) | – | >5000 | – | 22
